In brackets after ≈: the same amount, converted by molar mass. Several values for one entry are separate records, joined by “and”; a condition that tells them apart may be missing. Equal values may be shown once. Read-outs that look alike come from different tables or passages of the source.
Tests used:
[1] = tested on: Staphylococcus epidermidis sensitive strains (5 strains); experiment: In vitro antibacterial activity, MIC by agar double dilution method; format: cell-based; details: clinical isolates
Text: (§1) Experimental method: The agar double dilution method (Antimicrob. Agents and Chemother, 40, 1996, 720-726) was used to determine the minimum inhibitory concentration (MIC) of the series of compounds of the invention and the positive control drug linezolid for the test strains. The multipoint inoculation system (Denley A400) was employed to inoculate the bacteria on the agar plate surface with different concentrations of drugs; inoculation amount on each point was about 10^6 CFU/mL. The plates were incubated at 35° C. for 16 hrs before the results were observed. The lowest drug concentration contained in the Petri dish without bacterial growth was used as the minimum inhibitory concentration (MIC value) of the drug fir that strain.
(§2) Test strains: All the test strains were clinically isolated pathogens which were collected from the Nanjing region, and they were re-identified by routine methods before use. 31 strains of the clinically isolated pathogens were chosen, including 6 strains of Enterococcus, 5 Staphylococcus aureus sensitive strains; 5 Staphylococcus epidermidis sensitive strains; 6 Staphylococcus aureus resistant strains; 5 Staphylococcus epidermidis resistant strains; and 4 Streptococcus pneumoniae resistant strains.
(§3) Compounds to be tested were first added 2 ml of DMSO to help them fully dissolved, then added sterile double distilled water to the desired concentration; to all the Petri dish with added drug liquid were added 20 mL MIT medium which was heat-melted to be liquid-like, to make the final drug concentration in the Petri dish to be 64, 32, 16, 8, 4, 2, 1, 0.5, 0.25, 0.125, 0.0625, and 0.031 μg/mL.
(§4) The positive control group was LZ (linezolid, brand name Zyvox, approved by the FDA in 2000 to be firstly sold in the United States, which is the first and also the only one of oxazolidinone antibacterial drugs allowed to enter clinical application).

[2] = tested on: Staphylococcus aureus sensitive strains (5 strains); experiment: as above; format: cell-based; details: clinical isolates
Text: as §1, §2, §3, §4

[3] = tested on: Staphylococcus aureus resistant strains (6 strains); experiment: as above; format: cell-based; details: clinical isolates
Text: as §1, §2, §3, §4

[4] = tested on: Staphylococcus epidermidis resistant strains (5 strains); experiment: as above; format: cell-based; details: clinical isolates
Text: as §1, §2, §3, §4

[5] = tested on: Streptococcus pneumoniae resistant strains (4 strains); experiment: as above; format: cell-based; details: clinical isolates
Text: as §1, §2, §3, §4

Enterococcus (6 strains) = experiment: as above; format: cell-based; details: clinical isolates, 35° C. 16 hrs
Text: as §1, §2, §3, §4

[6] = tested on: LRSE, linezolid-resistant strain of Staphylococcus epidermidis (1 strain); experiment: In vitro antibacterial activity on linezolid-resistant strains, MIC in MHB broth, 96-well plate; format: cell-based; details: LRSE (1 strain)
Experimental: (§5) The stock solution of the subject drugs in DMSO was 10 mg/mL. MHA (agar) and MHB (broth) were both prepared according to the manufacturer's requirements.
(§6) Double dilution of drugs: under aseptic operation, 12.8 μL of liquid drug was added into the first well of a 96-well plate, and then added 27.2 μL DMSO and mixed. The 2nd to 12nd wells were all added 20 μL DMSO. 20 μL was taken from the first well to the second well and mixed up. 20 μL was taken from the second well to the third well, which was repeated till the 11st well, from which was taken 20 μL and discarded. The 12nd well only had 20 μL of DMSO as the growth control. Then 180 μL of sterile water was added to each well and mixed up. The drug used as control was prepared by the same method.
(§7) The solutions with different concentrations of antibacterial drugs after the double dilution and DMSO were added into a sterile 96-well plate separately, 10 μL per well, ready for use.
(§8) Single colonies were picked from the MHA plates into 5 ml of sterile saline and mixed up.
(§9) Light transmittance was adjusted to 80% with a spectrophotometer. After being diluted by 1:200 with MHB, 90 μL of such bacteria liquid was added into each of the wells which already had 10 μL of the drug liquid, mixed up, and incubated in a regular biochemical incubator at 35° C. for 20 hrs before the results were read out. At this time, the drug concentration in the 1st to 12nd wells was 32, 16, 8, 4, 2, 1, 0.5, 0.25, 0.125, 0.0625, 0.03125, 0 μg/mL, respectively.
(§10) Two parallel groups were set up for the same diluted concentration of a drug.
(§11) 4) Results Reading and Judgment: Refer to the Standard Recommended by the CLSI, 2010 Edition.
as §4

[7] = tested on: S.a. ATCC 29213 (standard strain of Staphylococcus aureus); experiment: as above; format: cell-based; details: ATCC29213, 35° C. 20 hrs
Experimental: as §5, §6, §7, §8, §9, §10, §11, §4

[8] = tested on: LRSA, linezolid-resistant strain of Staphylococcus aureus (3 strains); experiment: as above; format: cell-based; details: LRSA (3 strains)
Experimental: as §5, §6, §7, §8, §9, §10, §11, §4

[9] = tested on: LREFA, linezolid-resistant strain of Enterococcus faecium (3 strains); experiment: as above; format: cell-based; details: LREFA (3 strains)
Experimental: as §5, §6, §7, §8, §9, §10, §11, §4

[10] = tested on: LREFL, linezolid-resistant strain of Enterococcus faecalis (3 strains); experiment: as above; format: cell-based; details: LREFL (3 strains)
Experimental: as §5, §6, §7, §8, §9, §10, §11, §4

[11] = In vivo pharmacokinetic assays in rats (intragastric and intravenous), plasma Compound 14 by LC-MS/MS; set-up: species or system SD rats
Experimental: Two routes of administration (intragastric administration and intravenous injection) were employed.
(§12) Intragastric administration: Four healthy SD rats, male, weight 200-250 g, were dosed 15 mg/kg; the delivery volume was 10 ml/kg, prepared with 0.5% CMC-Na. The rats were fasted for 12 hrs before administration, free water-drinking. 0.3 ml of venous blood was taken from the posterior venous plexus of rats to heparinized tubes at 0.25, 0.5, 1.0, 2.0, 3.0, 4.0, 5.0, 7.0, 9.0, 24, and 48 hrs after administration, centrifuged at 3500 rpm for 10 mins to separate the plasma, which was then stored at −20° C. for test.
as §12, with “Intravenous injection: Two” for “Intragastric administration: Four”, “200˜250” for “200-250”, “5” for “15”, “DMSO, Tween 80 and deionized water.” for “0.5% CMC-Na.”, “5 min, 15 min, and” for “0.25,”
The concentration of Compound 14 in plasma was determined by liquid chromatography tandem mass spectrometry.
In accordance with the above experimental methods, the inventor has determined the in vivo pharmacokinetic properties of phosphate (ester) disodium salt 37 of Compound 14 in rats.

[12] = as above; set-up: species or system SD rats; details: for CLz: parameters of 14 in rats after 10 mg/kg Compound 37 intravenous injection
[13] = tested on: methicillin-resistant Staphylococcus aureus ATCC 33591 (MRSA); experiment: In vivo antibacterial activity, mice with systemic infection by MRSA, survival at 48 hours; details: female ICR mice, systemic infection (2.35 × 10^7 CFU/mice, intraperitoneal), oral administration 1 hour after infection
Experimental: Test strains: the strain used to infect animals was methicillin-resistant Staphylococcus aureus ATCC 33591 (MRSA).
Experimental animals: female ICR mice, age: 4 to 5 weeks, weight 20 to 22 grams, available from Shanghai Sippr BK Experimental Animal Co., Ltd., qualification certificate No.: 2008001625863.
Experimental method: Mice were randomly divided into groups. There were 4 dosage groups for each subject drug each administration manner: 2.5, 5, 10 and 20 mg/kg, 6 mice for each dosage group. Furthermore, a gastric mucin vehicle group was used as negative control for each administration manner. Mice were intraperitoneally injected with 10^7-10^8 CFU/mL of the bacterial suspension, 0.5 ml/mouse, and at 1 hour after infection the mice were orally administered the corresponding drugs for treatment, dosing volume 0.2 mL/20 g. This research program complied with the provisions and relevant regulations of National Laboratory Animal Management and Welfare.

| MIC [6] | MIC [7] | MIC [8] | MIC [9] | MIC [10] | melting point | SMILES | MIC [1] | MIC [2] | MIC [3] | MIC [4] | MIC [5] | MIC (Enterococcus (6 strains)) | plasma exposure of 14 of the group receiving 37 relative to the group receiving 14 ([11]; intragastric administration, upon measurement normalization) | plasma exposure of intravenous injection relative to that of Compound 14 ([11]; intravenous injection, prodrug 37 vs Compound 14) | oral plasma exposure relative to that of Compound 14 ([11]; oral, prodrug 37 vs Compound 14) | CLz ([12]; average value) | CLz ([12]; individual animals No. 5-7) | plasma exposure of compound 14 of the group receiving 37 relative to the group receiving 14 ([12]; rats, intravenous injection, upon measurement normalization) | ED50 [13] | ED50 ([13]; Staphylococcus aureus, read-out: ED50) |
| --- | --- | --- | --- | --- | --- | --- | --- | --- | --- | --- | --- | --- | --- | --- | --- | --- | --- | --- | --- | --- |
| 4 µg/mL (≈ 10.7 µM) | 0.5 µg/mL (≈ 1.34 µM) | 4 µg/mL (≈ 10.7 µM) | 2 to 4 µg/mL (≈ 5.37 to 10.7 µM) | 2 to 4 µg/mL (≈ 5.37 to 10.7 µM) | – | C[C@@H](O)C(O)c1ccc(-c2ccc3c(c2)OC[C@H]2[C@H](CO)OC(=O)N32)cn1 (stereo partly drawn) [Compound 18, (3R,3aS)-7-(6-((2R)-1,2-dihydroxylpropyl)pyridin-3-yl)-3-(hydroxylmethyl)-3a,4-dihydrobenzo[b]oxazolo[3,4-d][1,4]oxazin-1(3H)-one] | 1 to 2 µg/mL (≈ 2.69 to 5.37 µM) | 2 to 4 µg/mL (≈ 5.37 to 10.7 µM) | 2 µg/mL (≈ 5.37 µM) | 1 to 2 µg/mL (≈ 2.69 to 5.37 µM) | 2 to 4 µg/mL (≈ 5.37 to 10.7 µM) | 4 to 8 µg/mL (≈ 10.7 to 21.5 µM) | – | – | – | – | – | – | – | – |
| 4 µg/mL (≈ 9.45 µM) | 0.5 µg/mL (≈ 1.18 µM) | 8 µg/mL (≈ 18.9 µM) | 4 µg/mL (≈ 9.45 µM) | 4 µg/mL (≈ 9.45 µM) | 313 to 315 °C | N#Cc1ccc(-c2ccc3c(c2)OC[C@H]2[C@H](COC(=O)CCC(=O)O)OC(=O)N32)cn1 [Compound 34, 4-(((3R,3aS)-7-(6-cyanopyridin-3-yl)-1-oxo-1,3,3a,4-tetrahydrobenzo[b]oxazolo[3,4-d][1,4]oxazin-3-yl)methoxyl)-4-oxobutyric acid] | – | – | – | – | – | – | – | – | – | – | – | – | – | – |
| – | – | – | – | – | – | CN1CC(c2ccc(-c3ccc4c(c3)OC[C@H]3[C@H](COP(=O)([O-])[O-])OC(=O)N43)cn2)OC1=O.[Na+].[Na+] (stereo partly drawn) [Compound 37] | – | – | – | – | – | – | 157% | 1.34 times | 1.5 times | 40.3 mL/min/kg | 41.3 mL/min/kg and 35.7 mL/min/kg and 44 mL/min/kg | 134% | 5.00 mg/kg | – |

| SMILES | MIC [6] | MIC [7] | MIC [8] | MIC [9] | MIC [10] | melting point | MIC [1] | MIC [2] | MIC [3] | MIC [4] | MIC [5] | MIC (Enterococcus (6 strains)) | plasma exposure of 14 of the group receiving 37 relative to the group receiving 14 ([11]; intragastric administration, upon measurement normalization) | plasma exposure of intravenous injection relative to that of Compound 14 ([11]; intravenous injection, prodrug 37 vs Compound 14) | oral plasma exposure relative to that of Compound 14 ([11]; oral, prodrug 37 vs Compound 14) | CLz ([12]; average value) | CLz ([12]; individual animals No. 5-7) | plasma exposure of compound 14 of the group receiving 37 relative to the group receiving 14 ([12]; rats, intravenous injection, upon measurement normalization) | ED50 [13] | ED50 ([13]; Staphylococcus aureus, read-out: ED50) |
| --- | --- | --- | --- | --- | --- | --- | --- | --- | --- | --- | --- | --- | --- | --- | --- | --- | --- | --- | --- | --- |
| CC(=O)NC[C@H]1CN(c2ccc(N3CCOCC3)c(F)c2)C(=O)O1 [LZ, linezolid, reference compound] | 16 µg/mL (≈ 47.4 µM) | 1 µg/mL (≈ 2.96 µM) | > 32 µg/mL | 8 to 16 µg/mL (≈ 23.7 to 47.4 µM) | 8 to 16 µg/mL (≈ 23.7 to 47.4 µM) | – | 1 µg/mL (≈ 2.96 µM) | 1 to 2 µg/mL (≈ 2.96 to 5.93 µM) | 1 to 2 µg/mL (≈ 2.96 to 5.93 µM) | 1 to 2 µg/mL (≈ 2.96 to 5.93 µM) | 2 µg/mL (≈ 5.93 µM) | 1 to 2 µg/mL (≈ 2.96 to 5.93 µM) | – | – | – | – | – | – | – | 9.87 mg/kg |

Source: patent US9416144B2, “Benzoxazine oxazolidinone compound, preparation method and application thereof” (priority 2012, dated 2016)
